Each structure is given as a SMILES string. Converted amounts (≈) assume the structure as drawn. Some results are limits rather than exact numbers.

For assay [1], the system named is WI 38 (normal fibroblast cells). The assay is described as follows: In vitro cytotoxicity, SRB cell growth assay, normal cells WI 38. The settings on record: 48 h exposure, non-cytotoxic = IC50 >100 μg/mL; for IC50: Homo sapiens, WI-38, 48 h. The assay is classed as cell-based, human. On the procedure:
The in vitro cytotoxic activity of the newly synthesized compounds against human breast cell line (MCF7), non-small cell lung cancer NCIH460, CNS cancer SF-268 and WI 38 (normal fibroblast cells) were evaluated using doxorubicin as the reference drug according to the method reported by Skehan et al..
The newly synthesized compounds were evaluated in vitro against three human cancer cell lines; which are MCF-7 (breast adenocarcinoma), NCI-H460 (non-small cell lung cancer) and SF-268 (CNS cancer), and WI 38 (normal fibroblast cells) were used in this study. MCF-7 was obtained from the European Collection of Cell Cultures (ECACC, Salisbury, UK) but NCI-H460, SF-268 and WI 38 were kindly provided by the National Cancer Institute (NCI, Cairo, Egypt). They grow as monolayer and routinely maintained RPMI-1640 medium supplemented with 5% heat inactivated fetal bovine serum (FBS), 2 mM glutamine and antibiotics (penicillin 100 U/mL, streptomycin 100 µg/mL), at 37 °C in a humidified atmosphere containing 5% CO2. Exponentially growing cells were obtained by plating 1.5 × 10^5 cells/mL for MCF-7 and SF-268, and 0.75 × 10^4 cells/mL for NCI-H460 followed by 24 h of incubation. The effect of the vehicle solvent (DMSO) on the growth of these cell lines was evaluated in all experiments by exposing untreated control cells to the maximum concentration (0.5%) of DMSO used in each assay.
The effect of compounds on the in vitro growth of human tumor cell lines were evaluated according to the procedure adopted by the National Cancer Institute ([…]) in the “In vitro Anticancer Drug Discovery Screen” that uses the protein-binding dye sulforhodamine B (SRB) to assess cell growth. In the assay protocol, all cells were incubated at 37 °C under humidified atmosphere containing 5% CO2. Briefly, exponentially cells growing in 96-well plates were then exposed for 48 h to five serial concentrations of each compound, starting from a maximum concentration of 150 μg/mL. Following this exposure period adherent cells were fixed, washed and stained. The bound stain was solubilized and the absorbance was measured at 492 nm in a plate reader (Bio-Tek Instruments Inc., Power wave XS, Winston, NC, USA). For each test compound and cell line, a dose response curve was obtained and the inhibitory concentration of 50% (IC50), corresponding to the concentration of the compounds that inhibited 50% of the net cell growth was calculated as described elsewhere. Doxorubicin was used as a positive control and tested in the same manner.

Assay [2] has as its system Staphylococcus aureus. The assay is described as follows: MIC by broth dilution, Staphylococcus aureus. The format is cell-based. The settings on record: Staphylococcus aureus, Gram positive, 0.98-125 µg/mL, read-out: Minimum Inhibitory Concentration (MIC) (µg/mL) Staphylococcus aureus. On the procedure: (§1) In this study, MIC (quantitative method) was used for evaluation of the antimicrobial activity of tested compounds. Screening was evaluated in vitro using the Broth dilution method according to CLSI [45]. All the bacteria were incubated and activated at 30 °C for 24 h inoculation into nutrient broth and the fungi were incubated in malt extract broth for 48 h. The compounds were dissolved in DMSO and then diluted using […] Mueller-Hinton broth. […] In each case triplicate tests were performed and the average was taken as the final reading. The tubes were then inoculated with the test organisms, grown in their suitable broth at 37 °C for 24 h for tested microorganisms (1 × 10^8 CFU/mL for bacteria and 1 × 10^6 CFU/mL of fungi), each 5 mL received 0.1 mL of the above inoculum and incubated at 37 °C for 24 h.
(Broth dilution looks for growth in wells or tubes with falling amounts of substance.)

Assay [3] concerns Salmonella typhimurium. The assay is described as follows: MIC by broth dilution, Salmonella typhimurium. The assay is classed as cell-based. As to conditions: Salmonella enterica, TYPHIMURIUM, Gram negative, 0.98-125 µg/mL, read-out: Minimum Inhibitory Concentration (MIC) (µg/mL) Salmonella typhimurium. On the procedure:
as §1

The subject of assay [4] is Gram positive and negative bacteria. The assay is described as follows: MIC by broth dilution, summary over bacterial strains. The format is cell-based. The settings on record: range over bacterial strains as summarised in text. Here is the method: (§2) The disk diffusion method was used for determination of the antimicrobial activity using ampicillin, gentamicin and amphotericin B as reference drugs. The results were recorded for each compounds as the average diameter as inhibition zones (IZ) of bacterial or fungal growth around the discs in mm as shown in Table 2.
as §1

The subject of assay [5] is Aspergillus fumigatus. The assay is described as follows: MIC by broth dilution, Aspergillus fumigatus. The assay is classed as cell-based. The settings on record: Fungi, 0.98-125 µg/mL, read-out: Minimum Inhibitory Concentration (MIC) (µg/mL) Aspergillus fumigatus. Here is the method: as §2, §1
Assay [6] deals with Candida albicans. The assay is described as follows: MIC by broth dilution, Candida albicans. The assay is classed as cell-based. As to conditions: Fungi, 0.98-125 µg/mL, read-out: Minimum Inhibitory Concentration (MIC) (µg/mL) Candida albicans. Here is the method: as §2, §1
Assay [7] has as its system A. fumigatus and C. albicans. The assay can be described thus: Disk diffusion, summary over A. fumigatus and C. albicans. The assay is classed as cell-based. As to conditions: range over both fungi. On the procedure:
as §2
Antimicrobial activities were carried out against highly pathogenic strains; three strains of Gram positive bacteria (Bacillus subtilis, Staphylococcus aureus and Streptococcus faecalis), four strains of Gram negative bacteria (Escherichia coli, Neisseria gonorrhoeae, Pseudomonas aeruginosa and Salmonella typhimurium) and three fungi strains (Aspergillus flavus, Aspergillus fumigatus and Candida albicans) isolated from primary agar plates. Antimicrobial activity of the tested samples was determined using a modified Kriby-Bauer disk diffusion method. Briefly, 100 µL of the test bacteria/fungi were grown in 10 mL of fresh media until they reached a count approximately 10^8 cells/mL for bacteria or 10^5 cells/mL for fungi. 100 µL of microbial suspension was spread onto agar plates corresponding to the broth in which they were maintained. The inoculated plates of bacterial strains were incubated at 35–37 °C for 24–48 h, while the inoculated plates of fungal strains such as A. flavus and A. fumigatus were incubated at 25 °C for 48 h and yeast as C. albicans was incubated at 30 °C for 24–48 h.
The agar disk diffusion (qualitative) method was used in this investigation for determination of the preliminary antibacterial and antifungal activities. The agar used was Mueller-Hinton agar plates that are rigorously tested for composition and pH. Further the depth of the agar in the plate is a factor to be considered in the disk diffusion method.
Reference drugs: ampicillin was used as a standard antibacterial drug for Gram positive bacteria, gentamicin as a standard antibacterial drug for Gram negative bacteria and amphotericin B as antifungal standard drug.
Bacterial and fungal strains were spread onto the surface of the agar plates using sterile cotton swabs. […]
(A growth-free zone around the sample is the usual read-out of agar diffusion tests.)

Assay [8] concerns A. fumigatus and C. albicans. The assay is described as follows: MIC by broth dilution, summary over A. fumigatus and C. albicans. The format is cell-based. As to conditions: range over both fungi. Here is the method: as §2, §1

Consider `NNc1nc2cc(Br)ccc2nc1Cl` [Compound 3, 6-Bromo-2-chloro-3-hydrazinylquinoxaline], for which, in assay [1], the IC50 (commonly the point on the concentration scale where inhibition reaches its midpoint) was determined as 32.2 ± 6.54 µg/mL (≈ 118 µM). Further, the MIC was 3.9 µg/mL (≈ 14.3 µM) in assay [2] and 1.95 µg/mL (≈ 7.13 µM) in assay [3]. Further, the “MIC range against Gram positive and negative bacteria” value in assay [4] was 0.98 to 125 µg/mL.
For `Brc1ccc2c(c1)n1nnnc1c1nnnn21` [Compound 11, 9-Bromoditetrazolo[1,5-a:5′,1′-c]quinoxaline], the “IC50 (μg/mL) WI 38” value in assay [1] stood at 56.85 ± 4.05 µg/mL (≈ 195 µM). For the same compound, the half-inhibitory concentration (IC50) in assay [1] was above 100 µg/mL. Moreover, the MIC in assay [2] and in assay [3] was 7.81 µg/mL (≈ 26.8 µM) in each case.
Take `Brc1ccc2nc(N3CCOCC3)c3nnnn3c2c1` [Compound 5b, 8-Bromo-4-(morpholin-4-yl)tetrazolo[1,5-a]quinoxaline]: in assay [1], the IC50 is above 100 µg/mL. In addition, the MIC in assay [2] was 1.95 µg/mL (≈ 5.82 µM); in assay [3], 1.95 µg/mL (≈ 5.82 µM); in assay [5] it was 1.95 µg/mL (≈ 5.82 µM); in assay [6], 3.9 µg/mL (≈ 11.6 µM). The “IZ range against A. fumigatus and C. albicans” value (shortened to “IZ range”) in assay [7] is 5–13 mm. In assay [8], the “MIC range against A. fumigatus and C. albicans” value was in the range of 0.98 to 62.5 µg/mL.
The compound `Cc1cc(C)n(-c2nc3cc(Br)ccc3nc2NN)n1` [Compound 14, 6-Bromo-3-(3,5-dimethyl-1H-pyrazol-1-yl)-2-hydrazinyl quinoxaline] had a half-maximal inhibitory concentration (IC50) in assay [1] of 58.7 ± 8.65 µg/mL (≈ 176 µM). The MIC in assay [2] and in assay [3] was 1.95 µg/mL (≈ 5.85 µM) throughout.
In the case of `NC1=NN(c2nc3ccc(Br)cc3nc2N2N=C(N)CC2=O)C(=O)C1` [Compound 16, 6-Bromo-2,3-bis(3-amino-1H-pyrazol-5(4H)-one)quinoxaline], the IC50 in assay [1] turned out to be 30 ± 2.36 µg/mL (≈ 74.5 µM). In addition, the MIC in assay [2] and in assay [3] was 1.95 µg/mL (≈ 4.84 µM) each time.
As for `Clc1nc2ccc(Br)cc2n2nnnc12` [Compound 4, 8-Bromo-4-chlorotetrazolo[1,5-a]quinoxaline], the 50% inhibitory concentration (IC50) in assay [1] is above 100 µg/mL. Moreover, the MIC worked out at 3.9 µg/mL (≈ 13.7 µM) in assay [2], 0.98 µg/mL (≈ 3.44 µM) in assay [3] and 3.9 µg/mL (≈ 13.7 µM) in assay [6].
In the case of `NNc1nc2ccc(Br)cc2nc1NN` [Compound 9, 6-Bromo-2,3-dihydrazinylquinoxaline], the midpoint of inhibition in assay [1], the IC50, lay at 30.6 ± 6.21 µg/mL (≈ 114 µM). Further, the MIC in assay [2] amounted to 1.95 µg/mL (≈ 7.25 µM); in assay [3], 0.98 µg/mL (≈ 3.64 µM); in assay [5], 0.98 µg/mL (≈ 3.64 µM); in assay [6], 0.98 µg/mL (≈ 3.64 µM). Moreover, the “IZ range” value in assay [7] was 5–13 mm. For the same compound, the “MIC range against A. fumigatus and C. albicans” value in assay [8] was in the range of 0.98 to 62.5 µg/mL.
As for `Brc1ccc2nc(N3CCCCC3)c3nnnn3c2c1` [Compound 5a, 8-Bromo-4-(piperidin-1-yl)tetrazolo[1,5-a]quinoxaline], in assay [1], the half-maximal inhibitory concentration (IC50) was above 100 µg/mL. The MIC in assay [2] was 62.5 µg/mL (≈ 188 µM); in assay [3] it was 31.2 µg/mL (≈ 93.8 µM); in assay [5], 31.2 µg/mL (≈ 93.8 µM); in assay [6], 62.5 µg/mL (≈ 188 µM). Also, the “IZ range” value in assay [7] is given as 5–13 mm. Further, the “MIC range against A. fumigatus and C. albicans” value in assay [8] lay within 0.98 to 62.5 µg/mL.

The record behind these values is PMC6332220, “Synthesis, Characterization and Biological Evaluation of Some Quinoxaline Derivatives: A Promising and Potent New Class of Antitumor and Antimicrobial Agents” (Molecules, 2015).
